For one data set, the system named is Cavia porcellus. Particulars: acute; Inhalation; Guinea Pig.
A further data set concerns Mus musculus. Particulars: for NOAEL: duration: 10 days, gavage.
The subject of data set [1] is Rattus norvegicus. Particulars: for LC50 / LD50: acute.
In data set [2] the test system is Canidae. Particulars: oral, diet, Beagle.
Data set [3] deals with Oryctolagus sp. Particulars: acute; dermal.
Data set [4] deals with Rattus norvegicus. Particulars: oral, gavage, M/F.
Data set [5] concerns Oryctolagus sp. Particulars: developmental, M/F.
Data set [6] deals with Rattus norvegicus.
For data set [7], the system named is Rattus norvegicus. This is another data set of the same source.
The test system of data set [8] is Oryctolagus sp. Particulars: short-term; duration: 12 days; oral; gavage; M; New Zealand; hepatic.
Data set [9] has as its system Rattus norvegicus. Particulars: chronic; duration: 16 weeks; oral; diet; Kidney: Degeneration.
For data set [10], the system named is Canidae. Particulars: duration: 2 years, oral, M/F, Beagle, Liver effects and inhibition of brain acetylcholinesterase activity.
Data set [11] has as its system Canidae. Particulars: chronic; duration: 2 years; oral; diet; M/F; Dog Other; No adverse effects observed at the HDT.
[12] abbreviates: chronic, oral, F, liver and kidney toxicity.
Setting [13] is: oral, Reduced body weight gain (maternal), increased resorption, reduced body weight (fetal), delayed ossification.

“And” between values parts separate entries of the source, which are not always exact repeats. Identical values can stand only once.

As a reminder, the LC50 is the concentration that kills 50% of the test population. As a reminder, the LD50 is the dose expected to kill half of the subjects tested. Higher therefore signals lower toxicity. As usually defined, the NOAEL is the highest dose or exposure tested at which no adverse effect was seen. Take `CCCCOCCOCCOCOCCOCCOCCCC` [Bis(butoxyethoxyethoxy)methane]: the LC50 in the data set with Cavia porcellus is above 200 µg/mL; in the data set on Mus musculus (acute, Inhalation, Swiss-Webster), above 200 µg/mL; with Rattus norvegicus [1] (Inhalation, Wistar), above 200 µg/mL. In addition, the LD50 in the data set with Rattus norvegicus [1] (dermal, occlusive, Sprague-Dawley) is above 2000 mg/kg; with Rattus norvegicus [1] (oral, Sprague-Dawley), above 2000 mg/kg. Moreover, the NOAEL in the data set with Rattus norvegicus [1] (developmental, duration: 9 weeks, oral, gavage, Sprague-Dawley) worked out at 100 mg/kg-day; in the data set on Rattus norvegicus [1] (reproduction developmental, duration: 9 weeks, oral, gavage, F, Sprague-Dawley), 100 mg/kg-day; in the data set on Rattus norvegicus [1] (reproduction developmental, duration: 9 weeks, oral, gavage, Sprague-Dawley), 100 mg/kg-day; in the data set with Rattus norvegicus [1] (reproduction developmental, duration: 9 weeks, oral, gavage, Sprague-Dawley, generation: F0), 100 mg/kg-day; with Rattus norvegicus [1] (reproduction developmental, duration: 9 weeks, oral, gavage, Sprague-Dawley, generation: F1) it was 100 mg/kg-day.

`CCC(CC)C(C)COC(=O)c1ccccc1C(=O)OCC(C)C(CC)CC` (stereo not drawn) [Di-C7-9-branched and linear alkyl phthalates]: the no observed adverse effect level (NOAEL) in the data set with Canidae [2] (chronic, duration: 14 weeks) stood at 100 mg/kg-day; in the data set on Rattus norvegicus [1] (short-term, duration: 4 weeks, oral, diet), 100 mg/kg-day. Moreover, the LD50 in the data set on Mus musculus (acute, oral) is above 26000 mg/kg; with Rattus norvegicus [1] (oral) it was above 22000 mg/kg. Also, the “NOAEL (% diet)” value is 1 in the data set on Rattus norvegicus [1] (reproduction developmental, oral, diet, Sprague-Dawley, generation: F0) and 1 in the data set on Rattus norvegicus [1] (reproduction developmental, oral, diet, Sprague-Dawley, generation: F1).

Consider `CC(C)CCCCCCOC(=O)CCCCC(=O)OCCCCCCC(C)C` [Diisononyl adipate], for which the NOAEL came to 274 mg/kg-day in the data set on Canidae [2] (subchronic, duration: 13 weeks) and 500 mg/kg-day in the data set with Rattus norvegicus [1] (subchronic, duration: 13 weeks, oral, diet). The LD50 was above 3160 mg/kg in the data set on Oryctolagus sp. [3] and above 10000 mg/kg in the data set with Rattus norvegicus [1] (oral, gavage).

As a reminder, the LOAEL is the lowest tested level that showed an adverse finding. On to `CCc1ccccc1` [Ethylbenzene], for which the NOAEL in the data set on Rattus norvegicus [4] (subchronic, duration: 90 days, Wistar, Clinical Observation: Salivation Discolored urine + Functional Observational Battery: Decreased landing foot-splay + Body Weight Changes: …) was 75 mg/kg-day; in the data set on Oryctolagus sp. [5] (inhalation, developmental toxicity) it was 434 mg/m3. For the same molecule, the LOAEL with Rattus norvegicus [6] (setting [12]) amounted to 408 mg/kg-day; in the data set with Rattus norvegicus [6] (developmental, inhalation, M/F, developmental toxicity), 4340 mg/m3; with Rattus norvegicus [7] (chronic, duration: 104 weeks, inhalation, M/F, Fischer 344, renal), 326 mg/m3. In the data set on Rattus norvegicus [6] (setting [12]), the NOEL was 97.1 mg/kg-day and 136 mg/kg-day.

As to `ClC(Cl)(Cl)C(Cl)(Cl)Cl` [Hexachloroethane], the NOEL with Rattus norvegicus [4] (subchronic, duration: 13 weeks, Fischer 344, Deaths + Clinical Observation: Hyperactivity Convulsions + Body Weight Changes: decrease + Relative Organ Weight: Liver increase, Brain …) was below 47 mg/kg-day. The NOAEL was 465 mg/m3 in the data set on Rattus norvegicus [6] (subchronic, duration: 6 weeks, inhalation, M/F, Sprague-Dawley, neurotoxicity: tremors and ruffled pelt); 100 mg/kg-day in the data set on Oryctolagus sp. [8]; 1 mg/kg-day in the data set on Rattus norvegicus [7] (chronic, duration: 16 weeks, oral, diet, M/F, Fischer 344, hepatic); 465 mg/m3 in the data set with Rattus norvegicus [7] (reproduction developmental, duration: 10 days, inhalation, F, Sprague-Dawley, neurological); 465 mg/m3 with Rattus norvegicus [7] (subchronic, duration: 6 weeks, inhalation, M/F, Sprague-Dawley, neurological); 1 mg/kg-day with Rattus norvegicus [9].

Turning to `Cc1c(Cc2cc(C(C)(C)C)c(O)c(C(C)(C)C)c2)c(C)c(Cc2cc(C(C)(C)C)c(O)c(C(C)(C)C)c2)c(C)c1Cc1cc(C(C)(C)C)c(O)c(C(C)(C)C)c1` [Ionox 330], the NOAEL in the data set on Canidae [2] (subchronic, duration: 90 days) is 185 mg/kg-day; in the data set on Rattus norvegicus [1] (subchronic, duration: 90 days, oral, diet), above 960 mg/kg-day; in the data set on Rattus norvegicus [1] (subchronic, duration: 90 days, oral, diet, albino) it was 480 mg/kg-day. Besides, the LD50 was above 2000 mg/kg with Rattus norvegicus [1] (dermal, semiocclusive); above 1000 mg/kg in the data set with Rattus norvegicus [1] (injection, intraperitoneal, Sprague-Dawley); above 5000 mg/kg in the data set with Rattus norvegicus [1] (oral, Carworth 'E' and 'N' strains).

With `CC(C)(C)c1cc(CCC(=O)OCC(COC(=O)CCc2cc(C(C)(C)C)c(O)c(C(C)(C)C)c2)(COC(=O)CCc2cc(C(C)(C)C)c(O)c(C(C)(C)C)c2)COC(=O)CCc2cc(C(C)(C)C)c(O)c(C(C)(C)C)c2)cc(C(C)(C)C)c1O` [Irganox 1010], the NOAEL in the data set with Canidae [2] (subchronic, duration: 3 months) is 322 mg/kg-day; with Mus musculus (developmental, oral), 1000 mg/kg-day; in the data set with Mus musculus (developmental, oral, NMRI) it was 1000 mg/kg-day; in the data set with Mus musculus (reproduction developmental, oral, F) it was 1000 mg/kg-day; with Rattus norvegicus [1] (developmental, duration: 10 days, oral, gavage, Sprague-Dawley) it was 1000 mg/kg-day; with Rattus norvegicus [1] (reproduction developmental, duration: 10 months, oral, diet, generation: F0), 10000 ppm. Also, the NOAEL in the data set with Rattus norvegicus [1] (reproduction developmental, duration: 10 months, oral, diet, generation: F1) is 10000 ppm; in the data set on Rattus norvegicus [1] (reproduction developmental, duration: 10 months, oral, diet, generation: F2), 10000 ppm; in the data set on Rattus norvegicus [1] (subchronic, duration: 3 months, oral, diet, Sprague-Dawley), 2500 mg/kg-day. Also, the LD50 with Oryctolagus sp. [3] was above 3160 mg/kg; in the data set on Rattus norvegicus [1] (oral), above 5000 mg/kg. In addition, the LC50 in the data set on Rattus norvegicus [1] (inhalation) was above 1.96 µg/mL.

Take `CCOP(=S)(OCC)ON=C(C#N)c1ccccc1` [Phoxim]: the NOEL is below 7.5 mg/kg-day in the data set with Rattus norvegicus [4] (short-term, duration: 28 days, Slc: Wistar, Clinical Observation: Salivation + Body Weight Changes: decrease + Hematology: Hgb decrease, , Hct decrease, Plt increase, WBC increase + …); below 7.5 mg/kg-day with Rattus norvegicus [4] (short-term, duration: 28 days, Wistar, Clinical Observation: Salivation + Body Weight Changes: Weight gain decrease + Blood Chemistry: TP increase, ALB increase, A/G increasegamma…); 0.38 mg/kg-day in the data set with Canidae [10] (chronic, diet); 0.38 mg/kg-day with Canidae [10] (feed).

Take `C#CCOS(=O)OC1CCCCC1Oc1ccc(C(C)(C)C)cc1` (stereo not drawn) [Propargite]: the NOEL in the data set on Canidae [11] was determined as 22.5 mg/kg-day; in the data set with Oryctolagus sp. [5] (setting [13]), 2 mg/kg-day. Moreover, in the data set with Oryctolagus sp. [5] (setting [13]), the LEL was 6 mg/kg-day.
